US20250205204A1, “Transcription Factor Brn2 Inhibitory Compounds for Use as Therapeutics” (The University of British Columbia, priority 2021, published 2025)
“Also recorded” adds a separate entry of the source.

What was measured:
[1] = Metabolic stability in liver microsomes (MLM); assay type: in vitro ADME, mice; details: 0.25 mg/mL protein; for half-life at 1 μM: mouse, liver microsomes, pH 7.4, 1 μM compound, read-out: T1/2 in mins (MLM); for Met Stab % (60 mins) MLM: percent remaining at 60 min, 1 μM compound, 1 mM NADPH
How it was run: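 Mouse liver microsomes (0.25 mg/mL protein) in 50 mM potassium phosphate pH 7.4 at 37 °C with 1 µM compound, 1 mM NADPH, 0.1% DMSO; sampled 0–60 min in duplicate. LC-MS/MS parent depletion gives half-life; CL'int in mL/min/kg scaled with 45 mg protein/g liver, 90 g liver.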

[2] = biological target: T1, BRN2 (Homo sapiens, UniProt P20265); assay: BLI binding; details: result in words
T1 sequence (P20265 1-443): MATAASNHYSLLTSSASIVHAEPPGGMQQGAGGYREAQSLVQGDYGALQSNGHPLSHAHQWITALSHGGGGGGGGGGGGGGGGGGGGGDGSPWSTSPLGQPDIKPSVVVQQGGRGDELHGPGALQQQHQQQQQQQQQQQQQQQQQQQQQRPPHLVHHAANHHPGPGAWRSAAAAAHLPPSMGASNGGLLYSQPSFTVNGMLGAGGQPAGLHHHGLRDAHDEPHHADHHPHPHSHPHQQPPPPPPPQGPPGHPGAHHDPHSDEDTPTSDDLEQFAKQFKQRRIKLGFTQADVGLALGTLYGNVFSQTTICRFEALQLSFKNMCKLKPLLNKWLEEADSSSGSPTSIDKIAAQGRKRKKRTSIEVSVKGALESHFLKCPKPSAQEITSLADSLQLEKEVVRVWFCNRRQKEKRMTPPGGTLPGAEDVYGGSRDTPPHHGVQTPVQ

[3] = tested on: 42D^ENZR cells; assay: Cell proliferation, BRN2 expressing 42D cells (crystal violet); assay type: cell-based; details: about 72 hours; for Growth Specificity: 42D (express BRN2) versus 16D (no BRN2) cells, result in words; for IC50: 42D cells, proliferation, read-out: 42D IC50
How it was run: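 42D^ENZR (~7000/well) and 16D^CRPC (~5000/well) cells plated, compound added next day from 3× media stocks. After ~72 hours, cells fixed with glutaraldehyde, stained with crystal violet, dye eluted in Sorensen solution; absorbance read at 590 nm.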

[4] = tested on: 16D^CRPC cells; assay: Cell proliferation, 16D cells that do not express BRN2 (crystal violet); assay type: cell-based; details: for effect on 16D: result in words; for concentration above which 16D is affected: proliferation
Experimental: Step 3: Cell Proliferation
Plate 42DE^NZR (˜7000 cells per well) and 16D^CRPC (˜5000 cells per well) cells in 96 well plate with a volume of 100 μL per well. • 2. Next day 1 mL aliquots of media are combined with 3× the desired concentration of compounds. The aliquots are vortexed and 50 μL of each 3× concentration is added to the 100 μL of media in each well to give the ix desired concentration.
The following are the desired concentrations:
0, 10 nM, 100 nM, 500 nM, 1 μM, 2.5 μM, 5 μM, 10 μM, 15 μM, 20 μM, 30 μM. • 3. Approximately 72 hours later, 17 μL of 10% Glutaraldehyde is added to each well and plates are placed on a shaker for 20-30 minutes. • 4. Media is washed off the fixed cells by slow submersion in a container of water. Then the water is removed by tapping the plate upside down. • 5. 75 μL of Crystal Violet™ solution is added into the 96 well plates and placed on a shaker for ˜30 minutes. • 6. Media is washed off the fixed cells by repeated slow submersion in a container of water and the plates are allowed to dry over-night. • 7. Next day, 75 μL of Sorensen Solution is accurately pipetted into each well. The plates placed on a shaker for ˜30 minutes. • 8. Absorbance is measured in the plate at 590 nm. Compounds that Show Specificity Towards 42DE^NZR Cells Vs 16D^CRPC Cells Progress to Step 4.
(§1) In TABLES 1 and 2, in columns Met Stab % and T½, refers to compound's stability in MLM. There is a distinction in TABLES 1 and 2 difference between “Active” and “Specific” or “Specificity”. Some of the compounds were first tested to quantify inhibition of BRN2 transcriptional activity in a luciferase assay to determine BRN2 inhibition at 10 μM and 30 μM concentrations. […] Generally, compounds having low inhibitory activity were compounds with less than about ˜30% or activation at either concentration (i.e. 10 μM or 30 μM). Furthermore, some compounds that lacked specificity could also show off-target effects.

[5] = tested on: BRN2 transcriptional activity; assay: BRN2-luciferase reporter activity in 42D^ENZR cells; assay type: cell-based; details: 24 hours
Description: Step 1: Reporter Activity
Decreased expression of luciferase protein is validated via western blot to confirm downregulation and avoid false positive molecules that inhibit luciferase protein activity and not BRN2-drive luciferase expression. Molecules are prioritized by their inhibition potency to measure direct interaction with BRN2 in Step 2.
as §1

Row | Compound | half-life at 1 μM [1] [min] | Met Stab % (60 mins) MLM [1] [%] | BLI binding [2] | Growth Specificity [3] | IC50 [3] [µM] | effect on 16D [4] | concentration above which 16D is affected [4] [µM] | inhibition at 10 µM [5] [%] | inhibition at 30 µM [5] [%]
1 | Fc1ccc2c(c1)CC/C2=N/Nc1nc2ccccc2s1 [7-57] | 8 | 0 | Positive | Specific to 42D | 10 | no effect on 16D | – | – | –
2 | Fc1cccc2nc(N/N=C3/CCc4ccccc43)sc12 [7-65] | 6 | 0 | – | Specific to 42D | 10 | no effect on 16D | – | – | –
3 | c1ccc2sc(N/N=C3/CCc4ccncc43)nc2c1 [7-66] | 8 | 1 | – | Specific to 42D | 10 | no effect on 16D | – | – | –
4 | O=C1/C(=N\Nc2nc3ccccc3s2)Cc2ccc(Cl)cc21 [7-72] | 17 | 8 | – | Specific to 42D at low doses | – | – | > 15 | – | –
5 | CC(C)Oc1ccc2c(c1)C/C(=N/Nc1nc3ccccc3s1)C2=O [7-73, (Z)-2-(2-(benzo[d]thiazol-2-yl)hydrazineylidene)-5-isopropoxy-2,3-dihydro-1H-inden-1-one] | 26 | 19 | Positive binding | Specific to 42D at low doses | – | – | > 15 | – | –
6 | CC(C)Oc1ccc2c(c1)C(=O)/C(=N\Nc1nc3ccccc3s1)C2 [7-74, (Z)-2-(2-(benzo[d]thiazol-2-yl)hydrazineylidene)-6-isopropoxy-2,3-dihydro-1H-inden-1-one] | 17 | 6 | Positive binding | Specific to 42D at low doses | – | – | > 20 | – | –
7 | O=C1/C(=N\Nc2nc3ccccc3s2)Cc2cc(C(F)(F)F)ccc21 [7-108] | > 60 | 68 | Positive binding | Specific to 42D cells until 10 μM; also recorded: Specific to 42D cells up to 10 μM | – | – | > 15 | – | –
8 | CC(C)(C)OC(=O)c1ccc2c(c1)C(=O)/C(=N\Nc1nc3ccccc3s1)C2 [7-119] | 27 | 18 | No binding | Not specific | – | – | – | – | –
9 | Nc1ccc2c(c1)C/C(=N/Nc1nc3ccccc3s1)C2=O [7-120] | 24 | 17 | No binding | Not specific | – | – | – | – | –
10 | O=C1/C(=N\Nc2nc3ccccc3s2)Cc2cc(O)ccc21 [7-121] | 36 | 30 | Positive binding | Not specific | – | – | – | – | –
11 | CC(C)c1ccc2c(c1)C/C(=N/Nc1nc3ccccc3s1)C2=O [7-122] | 10 | 1 | No binding | Not specific | – | – | – | – | –
12 | O=C1/C(=N\Nc2nc3ccccc3s2)Nc2cc(F)ccc21 [7-123] | 25 | 18 | No binding | Not specific | – | – | – | – | –
13 | O=C1Nc2cc(F)ccc2/C1=N\Nc1nc2ccccc2s1 [7-124] | 27 | 21 | No binding | Not specific | – | – | – | – | –
14 | O=C1/C(=N\Nc2nc3ccccc3s2)Cc2c(Cl)cccc21 [7-125] | 44 | 36 | No binding | specific | – | – | – | – | –
15 | O=C1/C(=N\Nc2nc3ccccc3s2)Cc2c(F)cccc21 [7-126] | 15 | 6 | binding | specific | – | – | – | – | –
16 | CN(C)c1ccc2c(c1)C/C(=N/Nc1nc3ccccc3s1)C2=O [7-127] | 23 | 14 | No binding | Not specific | – | – | – | – | –
17 | c1ccc2c(c1)CC/C2=N\Nc1nc2ccccc2s1 [VPC-7] | – | – | – | 42D not 16D | – | – | – | 82.1 | 97.8
18 | c1ccc2c(c1)CC/C2=N\Nc1nc2ccccc2[nH]1 [VPC-8] | – | – | – | 42D and 16D non-specific | – | – | – | 84.5 | 96.1
19 | c1ccc2c(c1)CC/C2=N\Nc1ccc2ccccc2n1 [VPC-39] | – | – | – | non-specific | – | – | – | 99 | 99.9
